Where two headings read alike, the source gives them in different places.
Biological target: T1, mu opiate receptor (MOR) (Rattus norvegicus, UniProt P33535)
T1 construct: from tissue; host or cells: striatum (membrane preparation)
Assay type: biochemical
Details: for Concentration of FLNA-Binding Compound as Agonist 0.1 μM / Concentration of FLNA-Binding Compound as Agonist 1 μM / Concentration of FLNA-Binding Compound as Agonist 1 μM + BFNA: [35S]GTPγS binding to Gαo in striatal membranes; for Concentration of FLNA-Binding Compound as Agonist 0.1 μM: compound 0.1 μM; for Concentration of FLNA-Binding Compound as Agonist 1 μM: compound 1 μM; for Concentration of FLNA-Binding Compound as Agonist 1 μM + BFNA: compound 1 μM plus 1 μM β-funaltrexamine (MOR antagonist)
Procedure: To assess the mu opiate receptor (MOR) agonist activity of positive compounds from the FLNA screening, compounds were tested in a [^35S]GTPγS binding assay using striatal membranes. […] This assay measures a functional consequence of receptor occupancy at one of the earliest receptor-mediated events. The assay permits for traditional pharmacological parameters of potency, efficacy and antagonist affinity, with the advantage that agonist measures are not subjected to amplification or other modulation that may occur when analyzing parameters further downstream of the receptor.
Thus, striatal tissue was homogenized in 10 volumes of ice cold 25 mM HEPES buffer, pH 7.4, which contained 1 mM EGTA, 100 mM sucrose, 50 μg/ml leupeptin, 0.04 mM PMSF, 2 μg/ml soybean trypsin inhibitor and 0.2% 2-mercaptoethanol. The homogenates were centrifuged at 800×g for 5 minutes and the supernatants were centrifuged at 49,000×g for 20 minutes.
The resultant striatal membrane preparation (200 μg) was admixed and maintained (incubated) at 30° C. for 5 minutes in reaction buffer as above that additionally contained 1 mM MgCl2 and 0.5 nM [^35S]GTPγS (0.1 μCi/assay, PerkinElmer Life and Analytical Sciences) in a total volume of 250 μl and continued for 5 minutes in the absence or presence of 0.1-10 μM of an assayed compound of interest. The reaction was terminated by dilution with 750 μl of ice-cold reaction buffer that contained 20 mM MgCl2 and 1 mM EGTA and immediate centrifugation at 16,000×g for 5 minutes.
Normal rabbit serum (1 μl) was added to 1 ml of lysate and incubated at 25° C. for 30 minutes. Nonspecific immune complexes were removed by incubation with 25 μl of protein A/G-conjugated agarose beads at 25° C. for 30 minutes followed by centrifugation at 5,000×g at 4° C. for 5 minutes. The supernatant was divided and separately incubated at 25° C. for 30 minutes with antibodies raised against Gαo proteins (1:1,000 dilutions).
The immunocomplexes so formed were collected by incubation at 25° C. for 30 minutes with 40 μl of agarose-conjugated protein A/G beads and centrifugation at 5,000×g at 4° C. for 5 minutes. The pellet was washed and suspended in buffer containing 50 mM Tris-HCl, pH 8.0, and 1% NP-40. The radioactivity in the suspension was determined by liquid scintillation spectrometry.

[1] = 0.1 μM compound, striatal membranes, Series C-2
[2] = 1 μM compound + 1 μM β-FNA (selective MOR antagonist), Series C-2
[3] = 1 μM compound, striatal membranes, Series C-2

T1 sequence (P33535 whole entry): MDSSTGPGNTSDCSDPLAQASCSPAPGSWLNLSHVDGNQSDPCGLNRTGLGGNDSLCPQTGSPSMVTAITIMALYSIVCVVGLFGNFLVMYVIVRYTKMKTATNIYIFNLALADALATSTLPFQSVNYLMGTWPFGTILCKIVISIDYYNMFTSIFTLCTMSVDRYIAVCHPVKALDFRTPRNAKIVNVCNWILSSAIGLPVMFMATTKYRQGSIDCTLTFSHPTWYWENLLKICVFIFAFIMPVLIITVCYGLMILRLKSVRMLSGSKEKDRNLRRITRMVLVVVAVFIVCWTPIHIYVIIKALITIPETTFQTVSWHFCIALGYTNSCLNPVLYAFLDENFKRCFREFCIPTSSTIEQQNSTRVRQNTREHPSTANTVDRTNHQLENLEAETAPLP

SMILES	% DAMGO (0.1 μM) [%]	% DAMGO (1 μM) [%]	% DAMGO + BFNA [%]	[35S]GTPγS binding, FLNA-Binding Compound as Agonist at 0.1 μM [1] [%]	[35S]GTPγS binding, FLNA-Binding Compound as Agonist at 1 μM + BFNA [2] [%]	[35S]GTPγS binding, FLNA-Binding Compound as Agonist at 1 μM [3] [%]	Concentration of FLNA-Binding Compound as Agonist 0.1 μM [%]	Concentration of FLNA-Binding Compound as Agonist 1 μM [%]	Concentration of FLNA-Binding Compound as Agonist 1 μM + BFNA [%]	[35S]GTPγS binding, FLNA-Binding Compound as Agonist at 0.1 μM [%]	[35S]GTPγS binding, FLNA-Binding Compound as Agonist at 1 μM [%]	[35S]GTPγS binding, FLNA-Binding Compound as Agonist at 1 μM + BFNA [%]
CN1CCC2(CC1)NCC(=O)N2Cc1ccccc1 [Compound C0105M]	104.7	88.8	150.7	198.1	73.1	220.3						
COc1ccc(OC)c(CCC(=O)CC2c3c(cc4c(c3OC)OCO4)CC[N+]2(C)C)c1 (stereo not drawn) [Compound B0044]	49.4	66.9	511.8				87.3	170.0	134.6			
CC1CCC(C(C)C)C(OCC(O)CN2CCCN(C)CC2)C1 (stereo not drawn) [Compound A0010]	161.9	119.5	365.3				277.2	319.0	190.3			
O=S(=O)(c1cccc2cccnc12)N1CCC2(CC1)OCCN2S(=O)(=O)c1cccc2cccnc12 [Compound C0143M]	47.1	59.3	94.7	81.0	86.5	193.3	81.0	193.3	86.5			
COc1c2c(cc3c1C(CC(=O)Cc1ccc(C#N)cc1)[N+](C)(C)CC3)OCO2 (stereo not drawn) [Compound B0012]	97.8	79.4	278.5				167.4	212.0	145.1			
COc1c2c(cc3c1C(CC(=O)c1ccncc1)[N+](C)(C)CC3)OCO2 (stereo not drawn) [Compound B0005]	50.5	42.6	68.6				89.2	110.4	45.1			
CC1CCC(C(C)C)C(OCC(O)CN2CCCCCC2)C1 (stereo not drawn) [Compound A0013]	57.8	63.6	131.1				102.1	164.8	86.1			
CC1CN(CC(O)COc2ccccc2)CC(C)O1 (stereo not drawn) [Compound A0025]	33.2	54.5	198.5				58.6	138.7	52.2			
COc1cccc(OC)c1C(=O)CC1c2c(cc3c(c2OC)OCO3)CC[N+]1(C)C (stereo not drawn) [Compound B0023]	99.4	100.1	81.8				166.1	245.3	28.4			
Cc1cccc(OCC(O)CN2CC(C)OC(C)C2)c1 (stereo not drawn) [Compound A0030]	75.5	113.2	628.1				133.4	287.8	165.2			
COc1ccccc1CC(O)CC1c2c(cc3c(c2OC)OCO3)CC[N+]1(C)C (stereo not drawn) [Compound B0032]	115.0	109.0	35.5				221.1	297.7	15.6			
COc1ccc(NC(=O)N2CCC3(CC2)OCCN3C(=O)Nc2ccc(OC)cc2)cc1 [Compound C0151M]	201.6	122.0	233.1				346.8	397.6	212.8			
CC(=O)c1ccc(S(=O)(=O)N2C(Cc3c[nH]cn3)C(=O)NC23CCNCC3)cc1 (stereo not drawn) [Compound C0119M]	71.9	83.0	89.3							105.7	167.8	35.1
COc1ccc(S(=O)(=O)N2CCOC23CCN(S(=O)(=O)c2ccc(C(C)=O)cc2)CC3)cc1 [Compound C0047]	98.1	88.5	182.0				142.2	206.1	80.1			
O=[N+]([O-])c1ccc(S(=O)(=O)N2CCC3(CC2)NCCCO3)cc1 [Compound C0045]	88.3	109.1	634.3	149.2	105.3	238.8						
CCCCN1CCC2(CC1)OCCN2S(=O)(=O)c1ccc(OC)cc1 [Compound C0102M]	78.6	122.4	316.6	131.8	150.4	272.0						
O=S(=O)(c1cccc(OC(F)(F)F)c1)N1CCC2(CC1)OCCN2S(=O)(=O)c1cccc(OC(F)(F)F)c1 [Compound C0005]	105.4	85.1	319.4				180.4	227.2	166.4			
COc1ccc(CCC(=O)CC2c3c(cc4c(c3OC)OCO4)CC[N+]2(C)C)c(OC)c1 (stereo not drawn) [Compound B0043]	42.4	97.6	632.7				74.8	248.1	166.4			
